According to patent US7323541B2, “Polypeptide DNA thereof and use of the same” (Takeda Pharmaceutical Company Limited, priority 2001, dated 2008):

Assays:
Type in all cases: cell-based, human
HCT 116 = experiment: Apoptosis induction (Cell Death Detection ELISA PLUS); conditions: for Apoptosis inducing activity (A405-A492), Average: HCT 116, oligonucleotide 520 nM, three days
Description: (§1) Human colon cancer cell line COLO 205 acquired from ATCC was suspended in the RPMI-1640 medium (containing 25 mM HEPES) supplemented with 10% fetal calf serum (ATCC), and seeded at the cell density of 4000 per well in 96-well collagen type I coated plate (IWAKI). Human colon cancer cell line LS 174T acquired from ATCC was suspended in the Eagle's MEM, which is supplied from Invitrogen, supplemented with 10% fetal calf serum (ATCC), and seeded at the cell density of 3000 per well in 96-well flat bottom culture plate (BD Falcon). Human colon cancer cell line HCT 116 (ATCC) was suspended in D-MEM medium (containing 10 mM HEPES), which is supplied from Invitrogen, supplemented with 10% fetal calf serum (ATCC), and seeded at the cell density of 3000 per well in 96-well flat bottom culture plate (BD Falcon). After incubation under 5% CO2 gas flow at 37° C. for overnight, antisense oligonucleotide was transfected.
(§2) Antisense oligonucleotide sequence (SEQ ID NO: 123), which hybridizes to the translation region of TGR23 gene, was designed. Phosphorothioate-oligonucleotide was synthesized and purified by HPLC to use the transfection experiment (hereinafter, referred to as antisense oligonucleotide). For control, a reverse sequence (SEQ ID NO: 124) of the base sequence represented by SEQ ID NO: 123 was phosphorothioated and purified by HPLC to use (hereinafter, referred to as control oligonucleotide).
(§3) Specifically, in the case of COLO 205, to FuGENE™6 Transfection Reagent (Roche Diagnostics), which was diluted 167 fold with Opti-MEM I (Invitrogen), antisense oligonucleotide or control oligonucleotide was added. The mixed oligonucleotide solution was added to the plate at the ratio of 65 μl per well. The final concentration of oligonucleotide was adjusted to 200 nM. In the case of LS 174T, to Lipofectamine™2000 (Invitrogen), which was diluted 32 fold with Opti-MEM I (Invitrogen), antisense oligonucleotide or control oligonucleotide, which was diluted with Opti-MEM I (Invitrogen), was added at the ratio of 1:1. The mixed oligonucleotide solution was added to the plate at the ratio of 50 μl per well. The final concentration of oligonucleotide was adjusted to 33 nM. In the case of HCT 116, to OLIGOFECTAMINE™ Reagent (Invitrogen), which was diluted 5 fold with Opti-MEM I (Invitrogen), antisense oligonucleotide or control oligonucleotide, which was diluted with Opti-MEM I (Invitrogen), was added at the ratio of 3:8. The mixed oligonucleotide solution was added to the plate at the ratio of 40 μl per well. The final concentration of oligonucleotide was adjusted to 520 nM.
(§4) Under the above conditions, culture was continued for further three days. Using Cell Death Detection ELISA^PLUS Kit (Roche Diagnostics), in accordance with the attached protocol, apopyosis induction activity by the above oligonucleotide was measured.

LS 174T = experiment: as above; conditions: for Apoptosis inducing activity (A405-A492), Average: LS174T, oligonucleotide 33 nM, three days
Description: as §1, §2, §3, §4

COLO 205 = experiment: as above; conditions: for Apoptosis inducing activity (A405-A492), Average: COLO 205, oligonucleotide 200 nM, three days
Description: as §1, §2, §3, §4

TGR23 gene in COLO 205 = experiment: Reduction of TGR23 gene expression (TaqMan PCR); conditions: COLO 205, overnight after transfection
Description: (§5) The human colon cancer cell lines COLO 205 and LS 174T, wherein both were used in Example 46, were suspended in the same medium as that used in Example 46. The COLO 205 was seeded at the cell density of 24,000 per well to 24-well collagen type I coated plate (IWAKI), and the LS 174T was seeded at the cell density of 18,000 per well to 24-well flat bottom tissue culture plate (BD Falcon). After cell culture under 5% CO2 gas flow at 37° C. for overnight, in accordance with the method described in Example 46, the antisense oligonucleotide and control oligonucleotide, wherein both were used in Example 46, were transfected. Herein, adding volume of the oligonucleotide solution per well was 390 μl for COLO 205 and 300 μl for LS 174T. After transfection, the cells were cultured under 5% CO2 gas flow at 37° C. for overnight. Subsequently, using RNeasy Mini Total RNA Kit (QIAGEN), total RNA was extracted. Using the thus obtained total RNA as a template and TaqMan Reverse Transcription Reagents (Applied Biosystems), according to the attached protocol, reverse transcription reaction was carried out. Then using TaqMan Universal PCR Master Mix (Applied Biosystems), to the reaction sixture, cDNA corresponding 1.5 to 3 ng of total RNA as a template, 500 nM each of two primers (SEQ ID NO: 9 and SEQ ID NO: 10) and 100 nM FM-labeled probe (SEQ ID NO: 11) were added. The expressed copy numbers of the TGR23 gene were measured. The PCR reaction comprised the incubation at 50° C. for 2 minutes and 95° C. for 10 minutes, followed by the cycle set to include at 95° C. for 15 seconds and at 60° C. for one minute, which is repeated 40 times. When the antisense oligonucleotide and the control oligonucleotide were not transfected, an expression level of the TGR23 gene per 1 ng of total RNA was 620 copies for COLO 205 and 290 copies for LS 174T, whereas in the group with antisense oligonucleotide, it was 210 copies for COLO 205 and 150 copies for LS 174T. […] On the other hand, in the group with control oligonucleotide used as a negative control, the expression was 590 copies for COLO 205 and 280 copies for LS 174T, wherein it was not observed a statistically significant reduction of expression level, compared with non-transfection group.

TGR23 gene in LS 174T = experiment: Reduction of TGR23 gene expression (TaqMan PCR); conditions: overnight after transfection
Description: as §5

## antisense oligonucleotide: phosphorothioate oligonucleotide which hybridizes to the translation region of TGR23 gene (antisense GACCCACAGAGTTATCAATT; DNA, all phosphorothioate, methylation of C not given here)
HCT 116; HCT 116, in which TGR23 is not expressed
  apoptosis induction activity compared with control oligonucleotide: did not exhibit a significant apoptosis induction activity
HCT 116
  Apoptosis inducing activity (A405-A492), Average: 0.68
LS 174T
  Apoptosis inducing activity (A405-A492), Average: 1.1
LS 174T; LS 174T, p≦0.01
  apoptosis induction activity relative to control oligonucleotide: 1.3 fold
COLO 205
  Apoptosis inducing activity (A405-A492), Average: 0.83
COLO 205; COLO 205, p≦0.05
  apoptosis induction activity relative to control oligonucleotide: 1.6 fold
TGR23 gene in COLO 205
  expression level of the TGR23 gene per 1 ng of total RNA: 210 copies
TGR23 gene in LS 174T
  expression level of the TGR23 gene per 1 ng of total RNA: 150 copies

## control oligonucleotide: phosphorothioated reverse sequence of SEQ ID NO: 123, negative control (TTAACTATTGAGACACCCAG; DNA, all phosphorothioate, methylation of C not given here) [reference compound]
HCT 116
  Apoptosis inducing activity (A405-A492), Average: 0.72
LS 174T
  Apoptosis inducing activity (A405-A492), Average: 0.88
COLO 205
  Apoptosis inducing activity (A405-A492), Average: 0.52
TGR23 gene in COLO 205
  expression level of the TGR23 gene per 1 ng of total RNA: 590 copies
TGR23 gene in LS 174T
  expression level of the TGR23 gene per 1 ng of total RNA: 280 copies
